In patent publication US12091402B2 (Avilar Therapeutics, Inc., priority 2021, dated 2024):
Read-outs that look alike come from different tables or passages of the source.

Experiments:
[1] = molecular target: IgG; experiment: Affinity to IgG by surface plasmon resonance (SPR); format: binding
Description: Immobilization levels ranging from 1000-1300 resonance units (RU) are obtained. The running buffer is 10 mM HEPES, pH 7.4, 400 mM NaCl, 0.005% P20, […].

[2] = molecular target: T1, ASGPR (Homo sapiens, UniProt P07306); experiment: Affinity to ASGPR by surface plasmon resonance (SPR)
T1 sequence (P07306 1-291): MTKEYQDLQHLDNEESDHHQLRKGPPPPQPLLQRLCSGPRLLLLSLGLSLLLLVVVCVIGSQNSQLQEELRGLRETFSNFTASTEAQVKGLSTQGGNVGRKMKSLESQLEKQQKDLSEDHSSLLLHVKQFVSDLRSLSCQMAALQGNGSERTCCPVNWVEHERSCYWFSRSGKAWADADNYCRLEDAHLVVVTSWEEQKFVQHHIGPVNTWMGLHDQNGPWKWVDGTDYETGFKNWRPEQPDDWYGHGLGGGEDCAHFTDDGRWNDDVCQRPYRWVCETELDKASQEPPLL

[3] = Biacore 8K, 25° C., IgG on CM5 chip, read-out: IgG SPR Binding Kd

Kd [1, 3]	Kd ([1]; SPR, read-out: IgG KD)	Kd [2]	SMILES
–	–	1000 to 10000 nM	C=CCO[C@H]1O[C@H](Cn2cc(CO)nn2)[C@H](O)[C@H](O)[C@H]1NC(=O)C(F)(F)F [A63, N-((2S,3R,4R,5R,6R)-2-(allyloxy)-4,5-dihydroxy-6-((4-(hydroxymethyl)-1H-1,2,3-triazol-1-yl)methyl)tetrahydro-2H-pyran-3-yl)-2,2,2-trifluoroacetamide]
–	–	< 100 nM	O=C(O)COCCOCCOCC(=O)NC(COCCC(=O)NCCOCCOCCOCCOC[C@H]1OC[C@H](Nc2cncc(C(F)(F)F)n2)[C@@H](O)[C@H]1O)COCCC(=O)NCCOCCOCCOCCOC[C@H]1OC[C@H](Nc2cncc(C(F)(F)F)n2)[C@@H](O)[C@H]1O [A26, 1-((2R,3R,4R,5S)-3,4-dihydroxy-5-((6-(trifluoromethyl)pyrazin-2-yl)amino)tetrahydro-2H-pyran-2-yl)-20-(1-((2R,3R,4R,5S)-3,4-dihydroxy-5-((6-(trifluoromethyl)pyrazin-2-yl)amino)tetrahydro-2H-pyran-2-yl)-15-oxo-2,5,8,11,18-pentaoxa-14-azanonadecan-19-yl)-15,22-dioxo-2,5,8,11,18,24,27,30-octaoxa-14,21-diazadotriacontan-32-oic acid]
–	–	1000 to 10000 nM	CN(c1nccc(C(F)(F)F)n1)[C@H]1CO[C@H](CO)[C@H](O)[C@@H]1O [A60, (2R,3R,4R,5S)-2-(hydroxymethyl)-5-(methyl(4-(trifluoromethyl)pyrimidin-2-yl)amino)tetrahydro-2H-pyran-3,4-diol]
–	–	1000 to 10000 nM	C=CCO[C@H]1O[C@H](Cn2cc(-c3cccc(OC)c3)nn2)[C@H](O)[C@H](O)[C@H]1NC(=O)C(F)(F)F [A57, N-((2S,3R,4R,5R,6R)-2-(allyloxy)-4,5-dihydroxy-6-((4-(3-methoxyphenyl)-1H-1,2,3-triazol-1-yl)methyl)tetrahydro-2H-pyran-3-yl)-2,2,2-trifluoroacetamide]
–	–	10000 to 100000 nM	OC[C@@]12CO[C@@H](O1)[C@H](Nc1nccc(C(F)(F)F)c1F)[C@@H](O)[C@H]2O [A42, (1S,2R,3R,4R,5S)-4-[[3-fluoro-4-(trifluoromethyl)-2-pyridyl]amino]-1-(hydroxymethyl)-6,8-dioxabicyclo[3.2.1]octane-2,3-diol]
–	–	< 100 nM	O=C(O)COc1ccc(COC[C@H]2OC[C@H](Nc3cncc(C(F)(F)F)n3)[C@@H](O)[C@H]2O)cc1 [A19, 2-(4-((((2R,3R,4R,5S)-3,4-dihydroxy-5-((6-(trifluoromethyl)pyrazin-2-yl)amino)tetrahydro-2H-pyran-2-yl)methoxy)methyl)phenoxy)acetic acid]
–	–	1000 to 10000 nM	Cc1cc(C#N)nc(N[C@H]2[C@H]3OC[C@](CO)(O3)[C@H](O)[C@@H]2O)n1 [A38, 2-[[(1S,2R,3R,4R,5S)-2,3-dihydroxy-1-(hydroxymethyl)-6,8-dioxabicyclo[3.2.1]octan-4-yl]amino]-6-methyl-pyrimidine-4-carbonitrile]
–	–	< 1000 nM	COc1cccc(N(C)C[C@H]2OC[C@H](Nc3cncc(C(F)(F)F)n3)[C@@H](O)[C@H]2O)c1 [A106, (2R,3R,4R,5S)-2-(((3-methoxyphenyl)(methyl)amino)methyl)-5-((6-(trifluoromethyl)pyrazin-2-yl)amino)tetrahydro-2H-pyran-3,4-diol]
–	–	< 1000 nM	CN(C[C@H]1OC[C@H](Nc2cncc(C(F)(F)F)n2)[C@@H](O)[C@H]1O)c1ccccc1 [A99, (2R,3R,4R,5S)-2-((methyl(phenyl)amino)methyl)-5-((6-(trifluoromethyl)pyrazin-2-yl)amino)tetrahydro-2H-pyran-3,4-diol]
–	–	< 1000 nM	[N-]=[N+]=NC[C@H]1OC[C@H](Nc2cncc(C(F)(F)F)n2)[C@@H](O)[C@H]1O [A86, (2R,3R,4R,5S)-2-(azidomethyl)-5-((6-(trifluoromethyl)pyrazin-2-yl)amino)tetrahydro-2H-pyran-3,4-diol]

Second part, the compound before the results:

SMILES	Kd [1, 3]	Kd ([1]; SPR, read-out: IgG KD)	Kd [2]
CC(C)C[C@@H]1NC(=O)[C@H](Cc2cnc[nH]2)NC(=O)[C@H](Cc2c[nH]c3ccccc23)NC(=O)[C@H](C)NC(=O)[C@@H]2CSSC[C@H](NC(=O)[C@@H](Cc3c[nH]c4ccccc34)NC(=O)[C@H](C(C)C)NC(=O)[C@H](CC(C)C)NC(=O)[C@H](CCC(=O)O)NC(=O)CNC1=O)C(=O)N[C@@H]([C@@H](C)O)C(=O)N1CCC[C@@H]1C(=O)N1C[C@@H](N)C[C@H]1C(=O)N[C@@H](CC(=O)O)C(=O)N2 (stereo in doubt) [Intermediate 24]	< 100 nM	< 100 nM	–
CC(C)C[C@@H]1NC(=O)[C@H](Cc2cnc[nH]2)NC(=O)[C@H](Cc2c[nH]c3ccccc23)NC(=O)[C@H](C)NC(=O)[C@@H]2CSSC[C@H](NC(=O)[C@H](Cc3c[nH]c4ccccc34)NC(=O)[C@H](C(C)C)NC(=O)[C@H](CC(C)C)NC(=O)[C@H](CCC(=O)N(C)C)NC(=O)CNC1=O)C(=O)N[C@@H]([C@@H](C)O)C(=O)N1CCC[C@@H]1C(=O)N1C[C@@H](N)C[C@H]1C(=O)N[C@@H](CC(=O)O)C(=O)N2 [Intermediate 23]	< 100 nM	< 100 nM	–
CNC(=O)CC[C@@H]1NC(=O)CNC(=O)[C@H](CC(C)C)NC(=O)[C@H](Cc2cnc[nH]2)NC(=O)[C@H](Cc2c[nH]c3ccccc23)NC(=O)[C@H](C)NC(=O)[C@@H]2CSSC[C@H](NC(=O)[C@H](Cc3c[nH]c4ccccc34)NC(=O)[C@H](C(C)C)NC(=O)[C@H](CC(C)C)NC1=O)C(=O)N[C@@H]([C@@H](C)O)C(=O)N1CCC[C@@H]1C(=O)N1C[C@@H](N)C[C@H]1C(=O)N[C@@H](CC(=O)O)C(=O)N2 [Intermediate 22]	< 100 nM	< 100 nM	–
C#CCCCC(=O)NCCOCCOCCOCCOCCC(=O)N[C@H]1C[C@H]2C(=O)N[C@@H](CC(=O)O)C(=O)N[C@H]3CSSC[C@H](NC(=O)[C@H](Cc4c[nH]c5ccccc45)NC(=O)[C@H](C(C)C)NC(=O)[C@H](CC(C)C)NC(=O)[C@H](CCC(=O)O)NC(=O)CNC(=O)[C@H](CC(C)C)NC(=O)[C@H](Cc4cnc[nH]4)NC(=O)[C@H](Cc4c[nH]c5ccccc45)NC(=O)[C@H](C)NC3=O)C(=O)N[C@@H]([C@@H](C)O)C(=O)N3CCC[C@@H]3C(=O)N2C1 [Intermediate 4]	< 100 nM	< 100 nM	–
C#CCCCC(=O)NCCOCCOCCC(=O)N[C@H]1C[C@H]2C(=O)N[C@@H](CC(=O)O)C(=O)N[C@H]3CSSC[C@H](NC(=O)[C@H](Cc4c[nH]c5ccccc45)NC(=O)[C@H](C(C)C)NC(=O)[C@H](CC(C)C)NC(=O)[C@H](CCC(=O)O)NC(=O)CNC(=O)[C@H](CC(C)C)NC(=O)[C@H](Cc4cnc[nH]4)NC(=O)[C@H](Cc4c[nH]c5ccccc45)NC(=O)[C@H](C)NC3=O)C(=O)N[C@@H]([C@@H](C)O)C(=O)N3CCC[C@@H]3C(=O)N2C1 [Intermediate 6]	< 100 nM	–	–
CC(C)C[C@@H]1NC(=O)[C@H](Cc2cnc[nH]2)NC(=O)[C@H](Cc2c[nH]c3ccccc23)NC(=O)[C@H](C)NC(=O)[C@@H]2CSSC[C@H](NC(=O)[C@H](Cc3c[nH]c4ccccc34)NC(=O)[C@H](C(C)C)NC(=O)[C@H](CC(C)C)NC(=O)[C@H](CCC(=O)O)NC(=O)CNC1=O)C(=O)N[C@@H]([C@@H](C)O)C(=O)N1CCC[C@@H]1C(=O)N1C[C@@H](N)C[C@H]1C(=O)N[C@@H](CC(=O)O)C(=O)N2 [Intermediate 5]	< 100 nM	–	–
CC(C)C[C@@H]1NC(=O)[C@H](Cc2cnc[nH]2)NC(=O)[C@H](Cc2c[nH]c3ccccc23)NC(=O)[C@H](C)NC(=O)[C@@H]2CSSC[C@H](NC(=O)[C@H](Cc3c[nH]c4ccc(Cl)cc34)NC(=O)[C@H](C(C)C)NC(=O)[C@H](CC(C)C)NC(=O)[C@H](CCC(=O)O)NC(=O)CNC1=O)C(=O)N[C@@H]([C@@H](C)O)C(=O)N1CCC[C@@H]1C(=O)N1C[C@@H](N)C[C@H]1C(=O)N[C@@H](CC(=O)O)C(=O)N2 [Intermediate 29]	< 100 nM	< 100 nM	–
